Experimental data published in ChEMBL document CHEMBL1201862, “PubChem BioAssay data set” (2004).
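Interpolation was linear, between the two tested concentrations surrounding the appropriate level; five concentrations were tested over 48 hours in 96-well plates. GI50 marks 50% less growth.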 Calls of active or inactive are those of the source. Rule as the data show it: active = GI50 up to about 1.1 µM and inactive = higher.

Columns and labels:
Assay in all cases: growth of human tumour cells (NCI), 48 h
786-0 = tested on: 786-0
A549 = tested on: A549
ACHN = tested on: ACHN
DU-145 = tested on: DU-145
HCC 2998 = tested on: HCC 2998
HCT-116 = tested on: HCT-116
HL-60 = tested on: HL-60
IGROV-1 = tested on: IGROV-1
KM12 = tested on: KM12
MDA-MB-231 = tested on: MDA-MB-231
Malme-3M = tested on: Malme-3M
NCI-H23 = tested on: NCI-H23
NCI/ADR-RES = tested on: NCI/ADR-RES
RPMI-8226 = tested on: RPMI-8226
SF-268 = tested on: SF-268
SNB-75 = tested on: SNB-75
SR = tested on: SR
TK-10 = tested on: TK-10
UACC-257 = tested on: UACC-257
UO-31 = tested on: UO-31

Row | Structure (SMILES) | GI50 (786-0) | GI50 (A549) | GI50 (ACHN) | GI50 (DU-145) | GI50 (HCC 2998) | GI50 (HCT-116) | GI50 (HL-60) | GI50 (IGROV-1) | GI50 (KM12) | GI50 (MDA-MB-231) | GI50 (Malme-3M) | GI50 (NCI-H23) | GI50 (NCI/ADR-RES) | GI50 (RPMI-8226) | GI50 (SF-268) | GI50 (SNB-75) | GI50 (SR) | GI50 (TK-10) | GI50 (UACC-257) | GI50 (UO-31)
1 | O=C(OCCN=c1c2ccccc2ccc2ccccc12)c1ccc([N+](=O)[O-])cc1 | > 100 µM (inactive) | > 100 µM (inactive) | > 100 µM (inactive) | > 100 µM (inactive) | > 100 µM (inactive) | > 100 µM (inactive) | > 100 µM (inactive) | > 100 µM (inactive) | > 100 µM (inactive) | > 100 µM (inactive) | > 100 µM (inactive) | > 100 µM (inactive) | > 100 µM (inactive) | > 100 µM (inactive) | > 100 µM (inactive) | > 100 µM (inactive) | > 100 µM (inactive) | > 100 µM (inactive) | > 100 µM (inactive) | > 100 µM (inactive)
2 | O=C(Oc1cncc(Cl)c1)c1cc2ccccc2sc1=O | 63.5 µM (inactive) | > 100 µM (inactive) | 86.1 µM (inactive) | 89.1 µM (inactive) | 32.7 µM (inactive) | 78.3 µM (inactive) | 47.6 µM (inactive) | 49.5 µM (inactive) | 40.9 µM (inactive) | 61.5 µM (inactive) | 34.2 µM (inactive) | 58.7 µM (inactive) | 78.3 µM (inactive) | 21.1 µM (inactive) | 49.5 µM (inactive) | 27.8 µM (inactive) | 19.6 µM (inactive) | 76.7 µM (inactive) | > 100 µM (inactive) | > 100 µM (inactive)
3 | COc1ccc(/N=N/C(=N/NC(=O)c2ccccc2)c2ccc(N(CCC#N)CCC#N)cc2C)cc1 | 47.5 µM (inactive) | 38.2 µM (inactive) | 54.3 µM (inactive) | 81.3 µM (inactive) | 12.4 µM (inactive) | 29.9 µM (inactive) | 32.6 µM (inactive) | 42.8 µM (inactive) | 11.6 µM (inactive) | 50.9 µM (inactive) | 48 µM (inactive) | 25.5 µM (inactive) | > 100 µM (inactive) | > 100 µM (inactive) | 58.2 µM (inactive) | 43 µM (inactive) | 6.19 µM (inactive) | > 100 µM (inactive) | 78.7 µM (inactive) | 52 µM (inactive)
4 | C/C=C/[C@@]1(OC(=O)c2ccccc2)C[C@@H]2CCCC[C@@H]21 | 17.7 µM (inactive) | 18.5 µM (inactive) | 17.7 µM (inactive) | 17.5 µM (inactive) | 21.1 µM (inactive) | 16 µM (inactive) | 14 µM (inactive) | 17 µM (inactive) | 17.4 µM (inactive) | 20.6 µM (inactive) | 17.5 µM (inactive) | 16.5 µM (inactive) | 20.5 µM (inactive) | 16.6 µM (inactive) | 17.1 µM (inactive) | 14.2 µM (inactive) | 18.1 µM (inactive) | 15 µM (inactive) | 18.3 µM (inactive) | 11 µM (inactive)
5 | O=C1C(NCCc2cc(Br)c(O)c(Br)c2)=CC(=O)c2ncccc21 | 7.29 µM (inactive) | 3.52 µM (inactive) | 6.38 µM (inactive) | 3.66 µM (inactive) | 6.58 µM (inactive) | 3.71 µM (inactive) | 2.32 µM (inactive) | 4.15 µM (inactive) | 4.43 µM (inactive) | 10.2 µM (inactive) | 1.26 µM (inactive) | 0.659 µM (active) | 9.2 µM (inactive) | 4.79 µM (inactive) | 8.32 µM (inactive) | 1.31 µM (inactive) | 1.87 µM (inactive) | 17.1 µM (inactive) | 2.88 µM (inactive) | 5.87 µM (inactive)
6 | O=c1ccc(=O)c2c1c1[nH]c3ccccc3c1c1c(=O)c3ccccc3c(=O)c21 | > 10 µM (inactive) | > 10 µM (inactive) | > 10 µM (inactive) | > 10 µM (inactive) | > 10 µM (inactive) | > 10 µM (inactive) | 3.85 µM (inactive) | > 10 µM (inactive) | > 10 µM (inactive) | 5.36 µM (inactive) | > 10 µM (inactive) | > 10 µM (inactive) | > 10 µM (inactive) | > 10 µM (inactive) | > 10 µM (inactive) | > 10 µM (inactive) | > 10 µM (inactive) | 4.92 µM (inactive) | > 10 µM (inactive) | 5.66 µM (inactive)
7 | COC(=O)C1(Cc2ccccc2)Cc2ccccc2C1O (stereo not given) | > 100 µM (inactive) | 87.5 µM (inactive) | > 100 µM (inactive) | > 100 µM (inactive) | > 100 µM (inactive) | > 100 µM (inactive) | > 100 µM (inactive) | > 100 µM (inactive) | > 100 µM (inactive) | > 100 µM (inactive) | > 100 µM (inactive) | 63 µM (inactive) | > 100 µM (inactive) | > 100 µM (inactive) | > 100 µM (inactive) | 87.7 µM (inactive) | 92.9 µM (inactive) | 95.9 µM (inactive) | > 100 µM (inactive) | 62.4 µM (inactive)
8 | C=C1C(=O)[C@@]23CC[C@@H]4[C@@]5(C)CCC[C@@]4(OC5=O)[C@@]2(C)CC[C@@H]1C3 | 0.565 µM (active) | 3.28 µM (inactive) | 1.24 µM (inactive) | 3.78 µM (inactive) | 2.19 µM (inactive) | 1.13 µM (inactive) | 0.484 µM (active) | 1.72 µM (inactive) | 2.59 µM (inactive) | 1.73 µM (inactive) | 1.6 µM (inactive) | 1.94 µM (inactive) | 3.08 µM (inactive) | 0.508 µM (active) | 1.72 µM (inactive) | 2.8 µM (inactive) | 0.955 µM (active) | 1.11 µM (active) | 1.49 µM (inactive) | 1.9 µM (inactive)
9 | CCN(CC)CCC(=O)/C=C/c1ccccc1 | 2.67 µM (inactive) | 19 µM (inactive) | 12.6 µM (inactive) | 22.5 µM (inactive) | 19.5 µM (inactive) | 7.87 µM (inactive) | 2.55 µM (inactive) | 17.5 µM (inactive) | 6.5 µM (inactive) | 15.5 µM (inactive) | 15.9 µM (inactive) | 18.2 µM (inactive) | 17.5 µM (inactive) | 1.97 µM (inactive) | 10.3 µM (inactive) | 13.2 µM (inactive) | 3.41 µM (inactive) | 17.7 µM (inactive) | 16.2 µM (inactive) | 13.1 µM (inactive)
10 | CC(C)=CCOc1cc(NC(=S)c2ccsc2C)ccc1Cl | 40.2 µM (inactive) | 46.7 µM (inactive) | 16.7 µM (inactive) | 75.9 µM (inactive) | 3.49 µM (inactive) | 26.4 µM (inactive) | 44.1 µM (inactive) | 4.43 µM (inactive) | > 100 µM (inactive) | 13.1 µM (inactive) | 49 µM (inactive) | 17.1 µM (inactive) | 80.4 µM (inactive) | 15.7 µM (inactive) | 32.3 µM (inactive) | 14.1 µM (inactive) | 18.7 µM (inactive) | 93.5 µM (inactive) | 88.1 µM (inactive) | 5.85 µM (inactive)
